Read-outs that look alike come from different tables or passages of the source.
Tests used:
L540cy, HL [1] = tested on: L540cy, HL
Description: (§1) In vitro assays. Cells cultured in log-phase growth were seeded for 24 h in 96-well plates containing 150 μL RPMI 1640 supplemented with 20% FBS. Serial dilutions of antibody-drug conjugates in cell culture media were prepared at 4× working concentrations; 50 μL of each dilution was added to the 96-well plates. […] After 96 h, growth inhibition was assessed by CellTiter-Glo® (Promega, Madison, WI) and luminescence was measured on a plate reader.
(§2) In vitro assays—tubulysin ADCs. ADCs were prepared by t Ell reduction of interchain disulfides to reveal 8-conjugatable cysteines/antibody that were alkylated through Michael addition with the maleimide-containing Drug Linker compounds. […] conjugates hearing quaternized tubulysin ethers with and without a PEG12 side-chain were compared to their tubulysin M analogs.
(§3) Several hydrophilic linker constructs incorporating quaternized tubulysin M were prepared and evaluated in vitro; the results are shown in Table 5. The data (IC50 values in ng/mL) indicate that Conjugates prepared from Drug Linker compounds having quaternized tubulysin M linked via a hydrophilic ValGlu dipeptide with (95) or without (91) a PEG12 side chain, or linked via a hydrophilic glucuronide (82) provide ADCs that are equipotent to the ValAla comparator (15).

L428, MDR + HL [2] = tested on: L428, MDR + HL
Description: as §1, §2, §3

DEL/BVR, MDR + ALCL = tested on: DEL/BVR, MDR + ALCL
Description: as §1, §2, §3

Karpas299, ALCL [3] = assay: In vitro assays - tubulysin ADCs (cAC10, anti-CD30); format: cell-based; settings: Table 4; cAC10 ADCs DAR 8, 96 h
[4] = tested on: Karpas299, L540cy, L428, DEL, DEL/BVR cell lines; assay: In vitro assays - tubulysin ADCs, statements across the cell line panel; format: cell-based; settings: Table 4; cAC10 conjugates 8 drug/Ab
Description: as §1, §2, §3

[5] = tested on: antigen-negative Hep3B hepatocellular carcinoma cells; settings: Table 5, cAC10 ADCs 8 drugs/mAb, MDPR-Linker-TubM
Description: as §1, §3

DEL, ALCL = tested on: DEL, ALCL
Description: as §1, §2, §3

L540cy, HL [6] = assay: In vitro assays - tubulysin free drugs, CellTiter-Glo growth inhibition; format: cell-based; settings: L540cy, 96 h, Table 2; free drug, 96 hour exposure
HL60/RV, MDR + AML = assay: as above; format: cell-based; settings: Homo sapiens, HL-60, 96 h, Table 2; free drug, 96 hour exposure
HL60, AML = assay: as above; format: cell-based; settings: Homo sapiens, HL-60, 96 h, Table 2; free drug, 96 hour exposure
L428, MDR + HL [7] = assay: as above; format: cell-based; settings: Homo sapiens, L-428, 96 h, Table 2; free drug, 96 hour exposure
Karpas299, ALCL [8] = assay: as above; format: cell-based; settings: Homo sapiens, KARPAS-299, 96 h, Table 2; free drug, 96 hour exposure
[9] = tested on: Karpas299, L540cy, L428, HL60, HL60/RV cell lines; assay: In vitro assays - tubulysin free drugs, statements across the cell line panel; format: cell-based; settings: Table 2 cell lines, 96 hour exposure
Description: In vitro assays. Cells cultured in log-phase growth were seeded for 24 h in 96-well plates containing 150 μL RPMI 1640 supplemented with 20% FBS. Serial dilutions of antibody-drug conjugates in cell culture media were prepared at 4× working concentrations; 50 μL of each dilution was added to the 96-well plates. Following addition of ADC, cells were incubated with test articles for 4 d at 37° C. After 96 h, growth inhibition was assessed by CellTiter-Glo® (Promega, Madison, WI) and luminescence was measured on a plate reader. The IC50 value, determined in triplicate, is defined here as the concentration that results in a 50% reduction in cell growth relative to untreated controls.
In vitro assays—tubulysin free drugs. Cells were treated for 96 hours with tubulysin ether analogs (40-42) or tubulysin M (7), then assessed for viability as described in the methods.
The ethyl ether and tubulysin M maintained the highest level of potency in the context of MDR+L428 and HL60/RV cell lines.
The tubulysin ester analogs (133-137) and unsaturated ether analogs (176-179) were tested in vitro for potency relative to tubulysin M (7), following a 96 hour exposure. As shown by IC50 values (nM) of Table 2, Tubulysin esters 133-136 performed comparably to tubulysin M, with similar potencies across of the cell lines.

[10] = Table 4, cAC10 ADCs DAR 8, 96 h
[11] = Table 5, cAC10 ADCs 8 drugs/mAb, MDPR-Linker-TubM

| Structure (SMILES) | IC50, L540cy, HL (L540cy, HL [1]; [10]) | IC50, L428, MDR + HL (L428, MDR + HL [2]; [10]) | IC50, DEL/BVR, MDR + ALCL (DEL/BVR, MDR + ALCL; [10]) | IC50, Karpas299, ALCL (Karpas299, ALCL [3]) | also measured |
| --- | --- | --- | --- | --- | --- |
| CCCO[C@H](C[C@H](C(C)C)N(C)C(=O)[C@@H](NC(=O)[C@H]1CCCC[N+]1(C)Cc1ccc(O[C@@H]2O[C@H](C(=O)O)[C@@H](O)[C@H](O)[C@H]2O)c(NC(=O)CCNC(=O)[C@H](CCCCNC(=O)CCOCCOCCOCCOCCOCCOCCOCCOCCOCCOCCOCCOC)NC(=O)[C@H](CN)N2C(=O)C=CC2=O)c1)[C@@H](C)CC)c1nc(C(=O)N[C@@H](Cc2ccccc2)C[C@H](C)C(=O)O)cs1 (stereo partly drawn) [Compound 67] | 10 ng/mL | >1000 ng/mL | 12 ng/mL | 4 ng/mL |  |
| CC[C@H](C)[C@H](NC(=O)[C@H]1CCCC[N+]1(C)Cc1ccc(O[C@@H]2O[C@H](C(=O)O)[C@@H](O)[C@H](O)[C@H]2O)c(NC(=O)CCNC(=O)[C@H](CN)N2C(=O)C=CC2=O)c1)C(=O)N(C)[C@H](C[C@@H](OC)c1nc(C(=O)N[C@@H](Cc2ccccc2)C[C@H](C)C(=O)O)cs1)C(C)C (stereo partly drawn) [Compound 56, (2R)-1-(3-(3-((S)-3-amino-2-(2,5-dioxo-2,5-dihydro-1H-pyrrol-1-yl)propanamido)propanamido)-4-(((2S,3R,4S,5S,6S)-6-carboxy-3,4,5-trihydroxytetrahydro-2H-pyran-2-yl)oxy)benzyl)-2-(((2S,3S)-1-(((1R,3R)-1-(4-(((2R,4S)-4-carboxy-1-phenylpentan-2-yl)carbamoyl)thiazol-2-yl)-1-methoxy-4-methylpentan-3-yl)(methyl)amino)-3-methyl-1-oxopentan-2-yl)carbamoyl)-1-methylpiperidin-1-ium] | 10 ng/mL | >1000 ng/mL | 20 ng/mL | 3 ng/mL |  |
| CCO[C@H](C[C@H](C(C)C)N(C)C(=O)[C@@H](NC(=O)[C@H]1CCCC[N+]1(C)Cc1ccc(O[C@@H]2O[C@H](C(=O)O)[C@@H](O)[C@H](O)[C@H]2O)c(NC(=O)CCNC(=O)[C@H](CCCCNC(=O)CCOCCOCCOCCOCCOCCOCCOCCOCCOCCOCCOCCOC)NC(=O)[C@H](CN)N2C(=O)C=CC2=O)c1)[C@@H](C)CC)c1nc(C(=O)N[C@@H](Cc2ccccc2)C[C@H](C)C(=O)O)cs1 (stereo partly drawn) [Compound 66] | 5 ng/mL | 6 ng/mL | 6 ng/mL | 1 ng/mL |  |
| CCO[C@H](C[C@H](C(C)C)N(C)C(=O)[C@@H](NC(=O)[C@H]1CCCC[N+]1(C)Cc1ccc(O[C@@H]2O[C@H](C(=O)O)[C@@H](O)[C@H](O)[C@H]2O)c(NC(=O)CCNC(=O)[C@H](CN)N2C(=O)C=CC2=O)c1)[C@@H](C)CC)c1nc(C(=O)N[C@@H](Cc2ccccc2)C[C@H](C)C(=O)O)cs1 (stereo partly drawn) [Compound 57, (2R)-1-(3-(3-((S)-3-amino-2-(2,5-dioxo-2,5-dihydro-1H-pyrrol-1-yl)propanamido)propanamido)-4-(((2S,3R,4S,5S,6S)-6-carboxy-3,4,5-trihydroxytetrahydro-2H-pyran-2-yl)oxy)benzyl)-2-(((2S,3S)-1-(((1R,3R)-1-(4-(((2R,4S)-4-carboxy-1-phenylpentan-2-yl)carbamoyl)thiazol-2-yl)-1-ethoxy-4-methylpentan-3-yl)(methyl)amino)-3-methyl-1-oxopentan-2-yl)carbamoyl)-1-methylpiperidin-1-ium] | 5 ng/mL | 4 ng/mL | 5 ng/mL | 1 ng/mL | conjugate potency, in words [4]: consistently more potent |
| CC[C@H](C)[C@H](NC(=O)[C@H]1CCCC[N+]1(C)Cc1ccc(O[C@@H]2O[C@H](C(=O)O)[C@@H](O)[C@H](O)[C@H]2O)c(NC(=O)CCNC(=O)[C@H](CN)N2C(=O)C=CC2=O)c1)C(=O)N(C)[C@H](C[C@@H](OC(C)=O)c1nc(C(=O)N[C@@H](Cc2ccccc2)C[C@H](C)C(=O)O)cs1)C(C)C (stereo partly drawn) [Compound 82, (2R)-2-(((2S,3S)-1-(((1R,3R)-1-acetoxy-1-(4-(((2R,4S)-4-carboxy-1-phenylpentan-2-yl)carbamoyl)thiazol-2-yl)-4-methylpentan-3-yl)(methyl)amino)-3-methyl-1-oxopentan-2-yl)carbamoyl)-1-(3-(3-((S)-3-amino-2-(2,5-dioxo-2,5-dihydro-1H-pyrrol-1-yl)propanamido)propanamido)-4-(((2S,3R,4S,5S,6S)-6-carboxy-3,4,5-trihydroxytetrahydro-2H-pyran-2-yl)oxy)benzyl)-1-methylpiperidin-1-ium] | 4 ng/mL | 0.5 ng/mL | 3 ng/mL | 0.6 ng/mL | IC50, Hep3B CD30- HCC [5]: >1000 ng/mL; IC50, L540cy, HL (L540cy, HL [1]; [11]): 1 ng/mL; IC50, L428, MDR + HL (L428, MDR + HL [2]; [11]): 0.4 ng/mL; IC50, DEL, ALCL (DEL, ALCL; [11]): 0.3 ng/mL; IC50, DEL/BVR, MDR + ALCL (DEL/BVR, MDR + ALCL; [11]): 4 ng/mL |
| CC[C@H](C)[C@H](NC(=O)[C@H]1CCCC[N+]1(C)Cc1ccc(O[C@@H]2O[C@H](C(=O)O)[C@@H](O)[C@H](O)[C@H]2O)c(NC(=O)CCNC(=O)[C@H](CCCCNC(=O)CCOCCOCCOCCOCCOCCOCCOCCOCCOCCOCCOCCOC)NC(=O)[C@H](CN)N2C(=O)C=CC2=O)c1)C(=O)N(C)[C@H](C[C@@H](OC(C)=O)c1nc(C(=O)N[C@@H](Cc2ccccc2)C[C@H](C)C(=O)O)cs1)C(C)C (stereo partly drawn) [Compound 99] | 2 ng/mL | 0.5 ng/mL | 2 ng/mL | 0.3 ng/mL | IC50, DEL, ALCL (DEL, ALCL; [10]): 1 ng/mL |
| CC[C@H](C)[C@H](NC(=O)[C@H]1CCCC[N+]1(C)Cc1ccc(NC(=O)[C@H](C)NC(=O)[C@@H](NC(=O)[C@H](CN)N2C(=O)C=CC2=O)C(C)C)cc1)C(=O)N(C)[C@H](C[C@@H](OC(C)=O)c1nc(C(=O)N[C@@H](Cc2ccccc2)C[C@H](C)C(=O)O)cs1)C(C)C (stereo partly drawn) [Compound 15, (2R)-2-(((2S,3S)-1-(((1R,3R)-1-acetoxy-1-(4-(((2R,4S)-4-carboxy-1-phenylpentan-2-yl)carbamoyl)thiazol-2-yl)-4-methylpentan-3-yl)(methyl)amino)-3-methyl-1-oxopentan-2-yl)carbamoyl)-1-(4-((S)-2-((S)-2-((S)-3-amino-2-(2,5-dioxo-2,5-dihydro-1H-pyrrol-1-yl)propanamido)-3-methylbutanamido)propanamido)benzyl)-1-methylpiperidin-1-ium] |  |  |  |  | IC50, Hep3B CD30- HCC [5]: >1000 ng/mL; IC50, L540cy, HL (L540cy, HL [1]; [11]): 2 ng/mL; IC50, L428, MDR + HL (L428, MDR + HL [2]; [11]): 1 ng/mL; IC50, DEL, ALCL (DEL, ALCL; [11]): 0.3 ng/mL; IC50, DEL/BVR, MDR + ALCL (DEL/BVR, MDR + ALCL; [11]): 4 ng/mL |
| C#CCO[C@H](C[C@H](C(C)C)N(C)C(=O)[C@@H](NC(=O)[C@H]1CCCCN1C)[C@@H](C)CC)c1nc(C(=O)N[C@@H](Cc2ccccc2)C[C@H](C)C(=O)O)cs1 [Compound 178, (2S,4R)-4-(2-((1R,3R)-3-((2S,3S)—N,3-dimethyl-2-((R)-1-methylpiperidine-2-carboxamido)pentanamido)-4-methyl-1-(prop-2-yn-1-yloxy)pentyl)thiazole-4-carboxamido)-2-methyl-5-phenylpentanoic acid] |  |  |  |  | IC50 (L540cy, HL [6]): 0.17 nM; IC50 (HL60/RV, MDR + AML): 27 nM; IC50 (HL60, AML): 0.2 nM; IC50 (L428, MDR + HL [7]): 0.41 nM; IC50 (Karpas299, ALCL [8]): 0.05 nM; potency relative to tubulysin M (7), in words [9]: attenuated in potency |

Reference: patent US11793880B2, “Conjugates of quaternized tubulysin compounds” (Seagen Inc., priority 2015, dated 2023)
